According to patent publication US8937091B2 (Japan Science and Technology Agency, priority 2009, dated 2015):

Legend:
[1] = system: SOCE (store operated calcium entry) in CHO cells; experiment: Assay of SOCE (store operated calcium entry)-inhibiting action; format: cell-based, Chinese hamster; conditions: CHO cells, thapsigargin; for inhibition at 10 µM / inhibition at 30 µM / inhibition at 100 µM: Cricetulus griseus, CHO, read-out: SOCE level (percentage of inhibition)
Summary of the method: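 CHO cells in calcium-free BSS received compound, then 1 μM thapsigargin 2 min later to deplete stores; after 9 min, 2 mM calcium chloride (final) added. Percent inhibition of the rise in intracellular calcium determined at various compound concentrations.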

[2] = system: IICR (IP3 induced calcium release) in CHO cells; experiment: Assay of IICR (IP3 induced calcium release)-inhibiting action; format: cell-based, Chinese hamster; conditions: CHO cells, 10 μM ATP; for inhibition at 10 µM / inhibition at 30 µM / inhibition at 100 µM: Cricetulus griseus, CHO, read-out: IICR level (percentage of inhibition)
Summary of the method: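 CHO cell medium replaced with calcium-containing BSS; compound added 1 min later, then 10 μM ATP after a further 2 min. Percent inhibition of the ATP-evoked rise in intracellular calcium determined at each compound concentration.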

| SMILES | inhibition at 10 µM ([1]; test compound 10 μmol) [%] | inhibition at 30 µM ([1]; test compound 30 μmol) [%] | inhibition at 100 µM ([1]; test compound 100 μmol) [%] | inhibition at 10 µM ([2]; test compound 10 μmol) [%] | inhibition at 30 µM ([2]; test compound 30 μmol) [%] | inhibition at 100 µM ([2]; test compound 100 μmol) [%] | SOCE level (percentage of inhibition) ([1]; test compound 10 μmol) [%] | SOCE level (percentage of inhibition) ([1]; test compound 30 μmol) [%] | SOCE level (percentage of inhibition) ([1]; test compound 100 μmol) [%] | IICR level (percentage of inhibition) ([2]; test compound 10 μmol) [%] | IICR level (percentage of inhibition) ([2]; test compound 30 μmol) [%] | IICR level (percentage of inhibition) ([2]; test compound 100 μmol) [%] |
| --- | --- | --- | --- | --- | --- | --- | --- | --- | --- | --- | --- | --- |
| O=C(CCN(c1ccccc1)c1ccccc1)c1ccccn1 [Example 185, 2-(N,N-diphenyl)aminoethyl-2-pyridylketone] | 0 | 10 | 20 | 0 | 10 | 20 | – | – | – | – | – | – |
| CCc1nccnc1C(=O)CCN(Cc1ccccc1)C(C)C [Example 186, 2-(N-isopropylbenzyl)aminoethyl-2-(3-ethyl)-pyrazylketone] | 0 | 0 | 10 | 70 | 90 | 100 | – | – | – | – | – | – |
| CCc1nccnc1C(=O)CCN(Cc1ccccc1)C(C)(C)C [Example 188, 2-(N-t-butylbenzyl)aminoethyl-2-(3-ethyl)-pyrazylketone] | 0 | 0 | 20 | 50 | 90 | 100 | – | – | – | – | – | – |
| O=C(CCNC12CC3CC(CC(C3)C1)C2)c1ccccc1 [Example 189, 2-N-adamantaneaminoethylphenylketone] | 0 | 10 | 10 | 0 | 0 | 0 | – | – | – | – | – | – |
| Cc1ccc(C(=O)CCNC23CC4CC(CC(C4)C2)C3)o1 [Example 190, 2-N-adamantane-aminoethyl-2-methylfurylketone] | 0 | 10 | 50 | 0 | 10 | 50 | – | – | – | – | – | – |
| CC(CNC12CC3CC(CC(C3)C1)C2)C(=O)c1ccc(F)cc1 (stereo not drawn) [Example 191] | 0 | 0 | 0 | 0 | 0 | 0 | – | – | – | – | – | – |
| O=C(CCCCl)c1ccncc1 [Example 192, 3-chloropropyl-4-pyridylketone] | 0 | 10 | 20 | 0 | 0 | 0 | – | – | – | – | – | – |
| CC(C)(C)N(CCC(=O)c1cccs1)Cc1ccccc1 [Example 193, 2-(N-t-butylbenzyl)aminoethyl-2-thiophenylketone] | 0 | 0 | 0 | 70 | 95 | 100 | – | – | – | – | – | – |
| CC(C)N(CCO)CCC(=O)c1cccs1 [Example 194, 2-(N-isopropylhydroxyethyl)aminoethyl-2-thiophenylketone] | 0 | 0 | 10 | 0 | 0 | 0 | – | – | – | – | – | – |
| CC(C)N(CC(=O)c1ccc(F)cc1)Cc1ccccc1 [Example 196, 1-(N-benzylisopropyl)aminomethyl-4-fluorophenylketone] | 0 | 20 | 40 | 0 | 10 | 30 | – | – | – | – | – | – |
| CC(=O)CCN(CCO)C(C)C [Example 197, 2-(N-hydroxyethylisopropyl)aminoethylmethylketone] | 0 | 0 | 0 | 0 | 0 | 0 | – | – | – | – | – | – |
| CC(=O)CCN(Cc1ccccc1)C(C)C [Example 198, 2-(N-benzylisopropyl)aminoethylmethylketone] | 0 | 0 | 0 | 0 | 0 | 0 | – | – | – | – | – | – |
| CC(C)N(CCO)CCC(=O)n1ccnc1 [Example 199, 2-(N-isopropylhydroxyethyl)aminoethyl-1-imidazolylketone] | 0 | 0 | 0 | 10 | 20 | 0 | – | – | – | – | – | – |
| CC(C)N(CCC(=O)N1CCCCCC1=O)Cc1ccccc1 [Example 200, 3-(N-benzylisopropyl)aminopropionylcaprolactam] | 0 | 0 | 10 | 0 | 0 | 20 | – | – | – | – | – | – |
| CC(C)N(CCO)CCC(=O)N1CCCCCC1=O [Example 201, 3-(N-hydroxyethylisopropyl)aminopropionylcaprolactam] | 0 | 0 | 0 | 0 | 0 | 0 | – | – | – | – | – | – |
| CC(C)N(CCC(=O)c1cc(Cl)sc1Cl)Cc1ccccc1 [Example 202, 2-(N-isopropylbenzyl)aminomethyl-3-(2,5-dichlorothiophenyl)ketone] | 0 | 20 | 50 | 50 | 80 | 100 | – | – | – | – | – | – |
| CC(C)N(CCO)CCC(=O)c1cc(Cl)sc1Cl [Example 203, 2-(N-isopropyl-2-hydroxyethyl)aminomethyl-3-(2,5-dichlorothiophenyl)ketone] | 50 | 20 | 10 | 40 | 90 | 100 | – | – | – | – | – | – |
| O=C(CCN(CCO)Cc1ccccc1)c1cc(Cl)sc1Cl [Example 204, 2-(N-2-hydroxyethylbenzyl)aminomethyl-3-(2,5-dichlorothiophenyl)ketone] | 0 | 0 | 50 | 0 | 40 | 70 | – | – | – | – | – | – |
| CC(C)N(CCO)CCC(=O)c1ccc2ccccc2c1 [Example 205, 2-(N-hydroxyethylisopropyl)aminoethyl-2-naphthylketone] | 0 | 0 | 0 | 0 | 0 | 0 | – | – | – | – | – | – |
| CC(C)N(CCO)CC(=O)c1ccccc1 [Example 206, 2-(N-hydroxyethylisopropyl)aminomethylphenylketone] | 0 | 0 | 0 | 0 | 0 | 40 | – | – | – | – | – | – |
| CC(C)N(CCO)CCCC(=O)c1ccccc1 [Example 207, 3-(N-hydroxyethylisopropyl)aminopropylphenylketone] | – | – | – | – | – | – | 0 | 0 | 30 | 20 | 20 | 20 |
| CN(CCO)CCC(=O)c1cnccn1 [Example 208, 2-(N-hydroxyethylmethyl)aminoethyl-2-pyrazylketone] | 0 | 10 | 20 | 20 | 30 | 30 | – | – | – | – | – | – |
